Experimental findings from ChEMBL document CHEMBL5236544, “Furazans in Medicinal Chemistry” (J Med Chem, 2021) are described below.

The test system of data set [1] is Canis familiaris. Put plainly: Cardioprotective activity in dogs assessed as reduction in aortic pressure at 5.0 ug/kg, iv relative to control. Further details: scale not given: the % may be the effect or the level left. Type of data set: functional, Canis lupus familiaris.
In data set [2] the test system is HCT-116. Briefly: Antiproliferative activity against human HCT-116 cells assessed as inhibition of cell proliferation incubated for 24 hrs by MTT assay. The class given is functional, cell-based. As to conditions: HCT-116, 24 h. A general note: Tetrazolium dyes change colour on reduction, which living cells bring about.
Another data set relates to SW480. Put plainly: cells. As to conditions: Homo sapiens, SW480, 24 h.
In the next data set the test system is HASMC. Briefly: Antiproliferative activity against human HASMC cells assessed as inhibition of cell proliferation measured after 24 hrs by MTT assay. Type of data set: functional, cell-based.
Data set [3] deals with Rattus norvegicus. Briefly: Antihypertensive activity in spontaneously hypertensive rat model assessed as change in heart rate at 10 mg/Kg, po measured after 6 hrs. The class given is functional.
In data set [4] the test system is Rattus norvegicus. Put plainly: Antihypertensive activity in spontaneously hypertensive rat model assessed as change in heart rate at 1 mmol/Kg, po measured after 10 hrs. The class given is functional.
The subject of data set [5] is Rattus norvegicus. Put plainly: Antihypertensive activity in spontaneously hypertensive rat model assessed as change in heart rate at 1 mmol/Kg, po measured after 3 hrs. The class given is functional.
For data set [6], the system named is Rattus norvegicus. Briefly: Antihypertensive activity in spontaneously hypertensive rat model assessed as change in blood pressure at 3 mg/kg, po measured after 3 hrs. The class given is functional.
In data set [7] the test system is Rattus norvegicus. Put plainly: Antihypertensive activity in spontaneously hypertensive rat model assessed as change in blood pressure at 3 mg/kg, po measured after 6 hrs. Type of data set: functional.
The test system of data set [8] is Rattus norvegicus. Briefly: Antihypertensive activity in spontaneously hypertensive rat model assessed as change in blood pressure at 3 mg/kg, po measured after 10 hrs. The class given is functional.
Data set [9] addresses Ribosomal protein S6 kinase beta-1 (Homo sapiens, UniProt P23443). Put plainly: Inhibition of p70S6 (unknown origin) […].
Data set [10] concerns A549. Put plainly: Antiproliferative activity against human A549 cells assessed as inhibition of cell proliferation by MTT assay. Type of data set: functional, cell-based.
For data set [11], the system named is HCT-116. Briefly: Antiproliferative activity against human HCT-116 cells assessed as inhibition of cell proliferation by MTT assay. The class given is functional, cell-based.
The nature of data set [12]: Antiproliferative activity against mouse Lewis lung carcinoma cell line cells assessed as inhibition of cell proliferation by MTT assay. The class given is functional, cell-based.
The next data set concerns the target Histone deacetylase. Briefly: Inhibition of HDAC (unknown origin). The class given is protein assay, Homo sapiens.
The nature of data set [13]: Half life in rat, iv. The class given is ADME. The settings on record: in vivo.
The subject of data set [14] is A549. Briefly: Antitumor activity against human A549 cells xenografted in mouse model assessed as reduction in tumor growth at 100 mg/kg bid relative to control. More on the design: scale not given: the % may be the effect or the level left. The class given is functional.
The test system of the next data set is HeLa. Briefly: Antiproliferative activity against human HeLa cells assessed as cell growth inhibition. Type of data set: functional, cell-based.
The target in the next data set is Aurora kinase B (Homo sapiens, UniProt Q96GD4). Put plainly: Inhibition of Aurora B (unknown origin).
In data set [15] the target is Epidermal growth factor receptor (Homo sapiens, UniProt P00533). Briefly: Inhibition of EGF-R (unknown origin).
Epidermal growth factor receptor, sequence (P00533 whole entry): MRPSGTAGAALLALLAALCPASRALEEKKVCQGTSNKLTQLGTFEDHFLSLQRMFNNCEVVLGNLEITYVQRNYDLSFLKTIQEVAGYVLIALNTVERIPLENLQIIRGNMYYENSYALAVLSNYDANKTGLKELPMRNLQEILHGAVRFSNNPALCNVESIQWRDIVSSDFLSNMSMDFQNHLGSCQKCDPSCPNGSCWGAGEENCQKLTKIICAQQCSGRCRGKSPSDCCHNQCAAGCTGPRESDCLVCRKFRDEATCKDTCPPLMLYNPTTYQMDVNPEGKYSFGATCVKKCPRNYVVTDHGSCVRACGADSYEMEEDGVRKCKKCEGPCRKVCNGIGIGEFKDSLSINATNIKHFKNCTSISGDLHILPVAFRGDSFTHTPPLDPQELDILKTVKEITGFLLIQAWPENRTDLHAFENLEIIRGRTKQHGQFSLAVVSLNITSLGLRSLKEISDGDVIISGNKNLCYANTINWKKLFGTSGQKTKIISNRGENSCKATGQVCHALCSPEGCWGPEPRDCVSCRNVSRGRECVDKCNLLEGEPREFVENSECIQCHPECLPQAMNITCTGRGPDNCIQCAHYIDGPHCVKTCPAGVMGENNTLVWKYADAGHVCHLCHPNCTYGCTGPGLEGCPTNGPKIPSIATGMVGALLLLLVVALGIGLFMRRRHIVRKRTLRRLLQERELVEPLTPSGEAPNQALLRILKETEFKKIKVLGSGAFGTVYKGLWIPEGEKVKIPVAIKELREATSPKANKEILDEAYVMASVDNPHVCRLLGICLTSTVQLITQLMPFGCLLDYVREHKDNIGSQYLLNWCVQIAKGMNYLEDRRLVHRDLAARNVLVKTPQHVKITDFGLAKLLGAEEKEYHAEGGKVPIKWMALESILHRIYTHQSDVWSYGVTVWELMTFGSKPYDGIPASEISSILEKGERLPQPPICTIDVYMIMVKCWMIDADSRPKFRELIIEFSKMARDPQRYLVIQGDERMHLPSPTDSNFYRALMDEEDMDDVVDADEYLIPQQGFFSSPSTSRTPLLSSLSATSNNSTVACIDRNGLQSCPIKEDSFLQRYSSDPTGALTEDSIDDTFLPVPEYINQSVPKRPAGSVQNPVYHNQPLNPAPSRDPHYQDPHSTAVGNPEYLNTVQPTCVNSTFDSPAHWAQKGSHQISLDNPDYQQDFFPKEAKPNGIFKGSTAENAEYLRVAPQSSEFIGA
For data set [16], the target named is Insulin-like growth factor 1 receptor (Homo sapiens, UniProt P08069). Put plainly: Inhibition of IGF-1R (unknown origin).
Insulin-like growth factor 1 receptor, sequence (P08069 31-736 limits assumed): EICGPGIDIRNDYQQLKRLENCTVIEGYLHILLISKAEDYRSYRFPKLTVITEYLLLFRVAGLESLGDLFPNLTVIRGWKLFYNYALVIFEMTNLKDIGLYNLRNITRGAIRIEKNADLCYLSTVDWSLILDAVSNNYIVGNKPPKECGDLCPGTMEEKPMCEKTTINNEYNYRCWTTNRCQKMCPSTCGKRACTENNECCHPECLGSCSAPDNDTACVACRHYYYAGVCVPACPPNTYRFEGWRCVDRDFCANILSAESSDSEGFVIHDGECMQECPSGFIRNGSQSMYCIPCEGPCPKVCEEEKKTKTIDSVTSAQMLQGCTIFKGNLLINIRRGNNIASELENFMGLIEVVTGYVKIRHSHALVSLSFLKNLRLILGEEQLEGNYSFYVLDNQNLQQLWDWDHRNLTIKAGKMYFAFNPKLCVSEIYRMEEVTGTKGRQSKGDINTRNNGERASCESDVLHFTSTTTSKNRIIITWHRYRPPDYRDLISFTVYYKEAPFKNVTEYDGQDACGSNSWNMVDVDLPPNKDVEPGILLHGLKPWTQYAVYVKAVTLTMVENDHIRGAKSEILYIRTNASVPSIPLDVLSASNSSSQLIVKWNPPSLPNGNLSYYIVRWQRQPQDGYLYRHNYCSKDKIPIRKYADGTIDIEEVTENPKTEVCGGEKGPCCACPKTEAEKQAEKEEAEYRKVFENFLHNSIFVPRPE
Insulin-like growth factor 1 receptor, sequence (P08069 741-1367 limits assumed): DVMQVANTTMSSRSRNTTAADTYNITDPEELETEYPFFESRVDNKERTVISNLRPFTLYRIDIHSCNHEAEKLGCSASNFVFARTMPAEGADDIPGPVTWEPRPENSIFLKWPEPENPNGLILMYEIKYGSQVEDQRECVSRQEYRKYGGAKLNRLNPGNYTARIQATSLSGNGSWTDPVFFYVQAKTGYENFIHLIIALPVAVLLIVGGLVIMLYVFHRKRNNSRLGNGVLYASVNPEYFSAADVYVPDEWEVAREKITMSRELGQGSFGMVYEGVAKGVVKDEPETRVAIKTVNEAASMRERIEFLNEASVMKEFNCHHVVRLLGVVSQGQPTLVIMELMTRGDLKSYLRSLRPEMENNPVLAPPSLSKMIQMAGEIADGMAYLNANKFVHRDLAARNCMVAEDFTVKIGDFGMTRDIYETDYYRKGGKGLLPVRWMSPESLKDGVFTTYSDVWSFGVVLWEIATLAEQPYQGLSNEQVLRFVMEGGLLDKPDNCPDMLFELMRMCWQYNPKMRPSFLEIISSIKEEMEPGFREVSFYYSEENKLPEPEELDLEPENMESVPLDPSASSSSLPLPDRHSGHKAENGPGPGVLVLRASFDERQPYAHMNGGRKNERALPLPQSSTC
Data set [17] deals with Vascular endothelial growth factor receptor 2 (Homo sapiens, UniProt P35968). Briefly: Inhibition of VEGF-R2 (unknown origin).
Vascular endothelial growth factor receptor 2, sequence (P35968 whole entry): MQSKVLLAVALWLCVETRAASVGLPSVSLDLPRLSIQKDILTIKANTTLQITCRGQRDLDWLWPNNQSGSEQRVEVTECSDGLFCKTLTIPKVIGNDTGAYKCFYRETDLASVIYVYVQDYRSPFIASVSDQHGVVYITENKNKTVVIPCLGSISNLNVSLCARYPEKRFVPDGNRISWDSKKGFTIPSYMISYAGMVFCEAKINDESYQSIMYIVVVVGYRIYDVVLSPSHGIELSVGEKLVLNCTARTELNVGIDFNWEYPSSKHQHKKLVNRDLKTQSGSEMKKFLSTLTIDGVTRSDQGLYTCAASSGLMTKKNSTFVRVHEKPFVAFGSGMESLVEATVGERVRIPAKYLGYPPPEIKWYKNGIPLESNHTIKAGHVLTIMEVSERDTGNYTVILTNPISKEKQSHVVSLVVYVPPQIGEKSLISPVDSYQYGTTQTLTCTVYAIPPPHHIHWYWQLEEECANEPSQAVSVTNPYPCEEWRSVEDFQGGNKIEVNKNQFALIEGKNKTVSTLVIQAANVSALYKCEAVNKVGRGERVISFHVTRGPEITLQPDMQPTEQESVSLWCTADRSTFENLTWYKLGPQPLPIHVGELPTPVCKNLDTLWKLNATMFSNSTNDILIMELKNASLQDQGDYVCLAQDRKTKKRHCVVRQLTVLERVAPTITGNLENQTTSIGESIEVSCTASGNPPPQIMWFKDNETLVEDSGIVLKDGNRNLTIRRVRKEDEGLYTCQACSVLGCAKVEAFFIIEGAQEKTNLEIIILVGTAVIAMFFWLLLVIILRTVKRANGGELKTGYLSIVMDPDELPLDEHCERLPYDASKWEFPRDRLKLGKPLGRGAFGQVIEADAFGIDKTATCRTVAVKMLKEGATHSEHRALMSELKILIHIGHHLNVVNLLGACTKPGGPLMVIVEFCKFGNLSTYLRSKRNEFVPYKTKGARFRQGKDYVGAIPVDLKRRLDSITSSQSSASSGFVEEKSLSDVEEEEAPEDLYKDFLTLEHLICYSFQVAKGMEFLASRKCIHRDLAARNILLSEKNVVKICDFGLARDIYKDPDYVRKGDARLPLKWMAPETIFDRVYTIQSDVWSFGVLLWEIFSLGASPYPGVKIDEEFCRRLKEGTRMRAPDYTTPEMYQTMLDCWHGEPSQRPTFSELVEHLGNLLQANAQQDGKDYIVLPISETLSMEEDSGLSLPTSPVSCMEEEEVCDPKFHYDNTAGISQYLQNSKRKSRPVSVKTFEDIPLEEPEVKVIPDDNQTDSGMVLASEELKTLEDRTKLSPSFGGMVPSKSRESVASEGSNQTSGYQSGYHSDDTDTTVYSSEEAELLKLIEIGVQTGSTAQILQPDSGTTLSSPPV
Data set [18] concerns the target Proto-oncogene tyrosine-protein kinase Src (Homo sapiens, UniProt P12931). Put plainly: Inhibition SRC (unknown origin).
For data set [19], the system named is SK-OV-3. Briefly: Antiproliferative activity against human SK-OV-3 cells assessed as inhibition of cell proliferation by MTT assay. The class given is functional, cell-based.
Data set [20] deals with SK-OV-3. Put plainly: Antitumor activity against human SK-OV-3 cells xenografted in mouse model assessed as reduction in tumor growth at 100 mg/kg bid relative to control. The class given is functional. More on the design: scale not given: the % may be the effect or the level left. A general note: A xenograft is tissue or cells of one species grown in another, often human tumour cells in immunodeficient mice.

Data set [21] in a line: Half life in human liver microsomes. The class given is ADME. Background: Liver microsomes are vesicles of endoplasmic reticulum, rich in cytochrome P450 enzymes.
Data set [22] concerns Rattus norvegicus. Briefly: Antihypertensive activity in spontaneously hypertensive rat model assessed as change in blood pressure at 10 mg/kg, po measured after 3 hrs. The class given is functional.
The test system of data set [23] is Rattus norvegicus. Briefly: Antihypertensive activity in spontaneously hypertensive rat model assessed as change in blood pressure at 10 mg/kg, po measured after 6 hrs. The class given is functional.
For data set [24], the system named is Rattus norvegicus. Put plainly: Antihypertensive activity in spontaneously hypertensive rat model assessed as change in blood pressure at 10 mg/kg, po measured after 10 hrs. The class given is functional.
For data set [25], the species on record is Rattus norvegicus. Briefly: Antihypertensive activity in spontaneously hypertensive rat model assessed as reduction in pulmonary arterial pressure. Type of data set: functional.
The species entered for data set [26] is Rattus norvegicus. Put plainly: Antihypertensive activity in spontaneously hypertensive rat model assessed as reduction in systemic arterial pressure. Type of data set: functional.
In data set [27] the test system is Canis familiaris. Briefly: Cardioprotective activity in dogs assessed as reduction in aortic pressure at […], iv relative to control. Type of data set: functional, Canis lupus familiaris. Further details: scale not given: the % may be the effect or the level left.
The subject of data set [28] is Canis familiaris. Briefly: Cardioprotective activity in dogs assessed as increasing in coronary blood flow at […], iv relative to control. The class given is functional, Canis lupus familiaris.
In data set [29] the test system is Canis familiaris. Put plainly: Cardioprotective activity in dogs assessed as increasing in coronary blood flow at 5.0 ug/kg, iv relative to control. The class given is functional, Canis lupus familiaris. The settings on record: dose 5 µg/kg.

SMILES strings stand for the structures. “And” between values parts separate entries of the source, which are not always exact repeats. Identical values can stand only once.

Proto-oncogene tyrosine-protein kinase Src, sequence (P12931 2-536 limits assumed): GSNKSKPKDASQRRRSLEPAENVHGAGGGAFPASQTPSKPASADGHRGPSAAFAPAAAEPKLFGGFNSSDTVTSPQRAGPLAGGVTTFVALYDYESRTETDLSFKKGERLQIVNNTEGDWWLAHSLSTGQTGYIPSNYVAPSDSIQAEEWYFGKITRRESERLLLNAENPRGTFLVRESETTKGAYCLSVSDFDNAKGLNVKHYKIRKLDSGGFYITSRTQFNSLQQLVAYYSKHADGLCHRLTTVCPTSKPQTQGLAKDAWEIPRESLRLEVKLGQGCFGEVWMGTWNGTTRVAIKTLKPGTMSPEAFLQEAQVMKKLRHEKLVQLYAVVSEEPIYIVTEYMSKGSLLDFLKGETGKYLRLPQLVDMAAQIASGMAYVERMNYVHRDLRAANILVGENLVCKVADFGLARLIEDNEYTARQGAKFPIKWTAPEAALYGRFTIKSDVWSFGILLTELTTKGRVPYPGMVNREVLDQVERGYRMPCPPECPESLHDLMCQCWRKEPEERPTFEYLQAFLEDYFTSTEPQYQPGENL
Ribosomal protein S6 kinase beta-1, sequence (P23443 whole entry): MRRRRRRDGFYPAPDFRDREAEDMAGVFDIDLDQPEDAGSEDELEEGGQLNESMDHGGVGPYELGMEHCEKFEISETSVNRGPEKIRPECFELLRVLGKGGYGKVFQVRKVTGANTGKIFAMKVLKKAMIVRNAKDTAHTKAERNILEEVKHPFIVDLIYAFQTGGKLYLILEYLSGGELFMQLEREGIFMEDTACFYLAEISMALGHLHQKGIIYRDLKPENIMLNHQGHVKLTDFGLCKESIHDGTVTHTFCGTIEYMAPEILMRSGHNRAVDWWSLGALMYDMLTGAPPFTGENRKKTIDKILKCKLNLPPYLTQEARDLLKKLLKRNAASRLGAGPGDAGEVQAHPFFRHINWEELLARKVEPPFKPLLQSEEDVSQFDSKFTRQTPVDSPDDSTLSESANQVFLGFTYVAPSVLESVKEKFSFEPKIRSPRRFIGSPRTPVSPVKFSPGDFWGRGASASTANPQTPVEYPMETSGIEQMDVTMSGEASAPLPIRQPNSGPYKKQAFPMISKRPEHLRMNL
Description for SW480: Antiproliferative activity against human SW480 cells assessed as inhibition of cell proliferation incubated for 24 hrs by MTT assay

As for `CC1(C)Oc2ccc(C#N)cc2[C@@H](N2CCCC2=O)[C@@H]1O` [LEVCROMAKALIM], in the data set with Canis familiaris [1], the Activity is listed as -11.2%.

What is called EC50 is the concentration that produces a half-maximal response. As for `c1ccc2c(c1)c1nc3nonc3nc1n2CCc1nn[nH]n1`, the half-maximal effective concentration (EC50) was found to be 31 µM in the data set on HCT-116 [2] and 20 µM with SW480.

For orientation: IC50 means the point on the concentration scale where inhibition reaches its midpoint. As for `O=S(=O)(c1cccc2cnccc12)N1CCCNCC1` [FASUDIL], the IC50 in the data set on HASMC came to 1.3 µM. The Activity is given as -10 bpm with Rattus norvegicus [3]; -10 bpm with Rattus norvegicus [4]; -50 bpm with Rattus norvegicus [5]; -30 mmHg in the data set on Rattus norvegicus [6]; -20 mmHg in the data set with Rattus norvegicus [7]; 0 mmHg in the data set with Rattus norvegicus [8].

The molecule `Cc1ccc2c(c1)nc(-c1nonc1N)n2C1CCC1` yielded an IC50 in [9] of 0.019 µM.

The term half-life denotes the time needed for the level to fall by half in the phase considered. Consider `Nc1ccccc1NC(=O)c1ccc(C(=O)NCCNc2nonc2/C(=N/O)Nc2ccc(F)c(Br)c2)cc1`, for which the results for the EC50 (with A549 [10]; in the data set with HCT-116 [11]; in data set [12]) were 0.17 µM, 5.1 µM and 18 µM, respectively. Further, on Histone deacetylase, the IC50 turned out to be 0.067 µM. The same molecule gave a half-life in data set [13] of 3.4 h. Moreover, the Activity with A549 [14] was 56% and 54%.

For the molecule `Cc1ccc(/C=N/NC(=O)c2nnn(-c3nonc3N)c2-c2ccc([N+](=O)[O-])cc2)cc1`, the EC50 in the data set on HeLa amounted to 15.1 µM.

Take `O=C(O)c1cc(-c2ccc(/C=N/Nc3nc4nonc4nc3Nc3ccccc3)o2)ccc1Cl`: the IC50 (at Aurora kinase B; in data set [15]; in data set [16]; in data set [17]; in data set [18]) was under 1 µM each time.

On to `NS(=O)(=O)CC(=O)NCCSc1nonc1/C(=N/O)Nc1cccc(Cl)c1`, for which the EC50 in the data set with SK-OV-3 [19] came to 0.01 µM. Besides, the Activity in the data set with SK-OV-3 [20] is on record as 50%. In data set [21], this molecule came in with a half-life of over 3 h.

With `C[C@@H](N)[C@H]1CC[C@H](C(=O)Nc2ccncc2)CC1` [Y-27632], the Activity was 10 bpm in the data set with Rattus norvegicus [3]; 0 bpm in the data set with Rattus norvegicus [4]; -25 mmHg in the data set with Rattus norvegicus [22]; -10 mmHg in the data set on Rattus norvegicus [23]; -5 mmHg with Rattus norvegicus [24]; 75 bpm with Rattus norvegicus [5]. For the same molecule, the Activity in the data set listed under Rattus norvegicus [25] is -10 mmHg; in the data set listed under Rattus norvegicus [26], -32 mmHg.

Regarding `CC1(C)Oc2cc3nonc3cc2[C@@H](N2CCCCC2=O)[C@@H]1O`, the figures for the Activity with Canis familiaris [27], with Canis familiaris [28] and in the data set on Canis familiaris [29] were -7.5%, 34.3% and 33.3%, respectively.
